Experimental data reported in patent US20190201538A1, “TUMOR-TARGETING PHOTOSENSITIZER-DRUG CONJUGATE, METHOD FOR PREPARING SAME AND PHARMACEUTICAL COMPOSITION FOR PREVENTING OR TREATING TUMOR CONTAINING SAME” (KOREA INSTITUTE OF SCIENCE AND TECHNOLOGY, priority 2018, published 2019).
Numbered stars: 1 amine (or outer) side, 2 acyl side, 3 side chain; on linkers, the order of the positions; unused ones are H or OH. Square brackets hold non-standard residues; d marks the D form. Peptide text beside a SMILES is read from it. * marks the point of attachment. ξ: configuration not given here. X1 = C=Cc1c(C)c2cc3nc(c(CC(=O)O)c4nc(cc5[nH]c(cc1[nH]2)c(C)c5CC)C(C)=C4C(=O)O)C(CCC(=O)*)C3C; Dolaproine = CO[C@@H]([C@@H]1CCCN1)[C@@H](C)C(=O)O; ξDil = CC[C@H](C)C([C@@H](CC(=O)[*:2])OC)N(C)[*:1]; Dil = CC[C@H](C)[C@H](NC)[C@@H](CC(=O)O)OC; PABC = O=C(OCc1ccc(N[*:1])cc1)[*:2]; X2 = C[C@@H](N*)[C@@H](O)c1ccccc1; NMeV = CN[C@H](C(=O)O)C(C)C

What was measured:
SCC7 cells [1] = test: Cytotoxicity upon exposure to light (CCK-8)
Experimental: Specifically, 1×10^4 cells were seeded onto each well of a 96-well plate and cultured for 24 hours. Then, the cells were incubated with a drug at 500 nM for 6 hours after washing twice with PBS. After removing the culture medium, the cells were irradiated with light at 2.4 J/cm^2. The cells were then incubated for 30 minutes in a medium containing a 10% CCK-8 solution and absorbance was measured at 450 nm using a microplate reader.
(§1) The black circles indicate the sites irradiated with the laser.

SCC7 cells [2] = test: Trypan blue staining after laser irradiation of a marked area; type: cell-based; settings: 500 nM, 20 mW/cm^2 for 5 minutes
Experimental: […], SCC7 cells were cultured until 80% confluence on a 60 mm cell culture dish. […] After the incubation was completed, the culture medium was replaced. A laser was irradiated at 20 mW/cm^2 for 5 minutes only onto an area marked with a small circle on the culture dish. Then, the cells were treated with trypan blue for 1 minute.
as §1

caspase-3 [3] = settings: 500 nM, CDM + laser
Experimental: Caspase-3 colorimetric assay and western blot were conducted to quantify enzyme expression. First, SCC7 cells were cultured on a 100 mm^2 cell culture dish until 70% confluence and further cultured for 6 hours after adding a drug (500 nM). After replacing the medium, light was irradiated with 20 mW/cm^2 for 5 minutes. After culturing further for 3 hours, the cells were recovered for analysis of caspase-3. For immunoblotting assay, the cells were treated with anti-cleaved caspase-3 antibody (1:650) and anti-PARP antibody (1:1000) purchased from Cell Signaling Technology (Danvers, Mass.) as primary antibodies and then treated with HRP-conjugated anti-rabbit IgG and anti-mouse IgG (1:1000; R&D Systems) as secondary antibodies. The blotted membrane was analyzed with a chemiluminescence imager (LAS-3000; Fuji Photo Film, Japan). Colorimetric assay of caspase-3 was conducted using a microplate reader (VERSAmaxTM, Molecular Devices Corp., USA) and a caspase-3 assay kit (Abcam, Cambridge, MA) according to the manufacturer's instructions.

SCC7 tumor [4] = test: Biodistribution in vivo by NIR fluorescence imaging in tumor animal model; set-up: species or system mouse
Experimental: Near-infrared (NIR) fluorescence imaging was conducted using a real-time optical imaging system in order to evaluate biodistribution in vivo. […]
For the in-vivo experiment, a tumor animal model was prepared by injecting 1×10^6 SCC7 cells into the left flank of a nude mouse.

SCC7 cells [5] = settings: SCC7 cells incubated with CDM, laser irradiation
Experimental: The apoptosis of the fixed cells was measured using an annexin V-FITC apoptosis detection kit (Sigma-Aldrich Co., USA). […] Then, the light-irradiated cells were treated with trypsin and stained for 30 minutes with FITC-annexin V and propidium iodide (PI) according to the manufacturer's instructions. The fluorescence images of the stained cells were obtained using a confocal laser scanning microscope (Leica TCS SP8; Leica Microsystems, Germany).

SCC7 cells [6] = test: Cytotoxicity in vitro (CCK-8), with or without caspase-3; type: cell-based; settings: for effect on tumor cells at 10 nM without caspase-3: not activated by caspase-3 / alone
Experimental: The cytotoxicity of a drug was evaluated by a colorimetric assay using the cell counting kit-8 (CCK-8; Dojindo Molecular Technologies, Inc., USA). […] After removing the culture medium, the plate was washed twice with PBS.

SCC7 cells [7] = settings: 50 μg/mL
Experimental: Experiments were conducted using SCC7 cells as follows. Specifically, the cells were cultured in a medium containing 10% fetal bovine serum (FBS) and 1% antibiotic using a 5% CO2 incubator at 37 C. […] After the incubation was completed, the cells were washed and fixed with a 2% paraformaldehyde solution. Then, the cells were stained with 4,6-diamidino-2-phenylindole (DAPI, Invitrogen, USA).

[8] = 1 mg/kg, tail vein
Experimental: For comparative analysis of pharmacokinetic characteristics in vivo, a tumor animal model was prepared in the same manner as in 9) using C57/BL6 mice instead of BALB/c nude mice.
After the injection, 20 μL of blood was taken from the tail vein of the tumor animal model (C57/BL6) over 12 hours at predetermined time intervals. The blood was immediately diluted to 5-fold with a 0.5 mg/kg low-molecular-weight heparin solution (DMSO:DIW cosolvent). Then, after transferring to a 96-well plate, the fluorescence intensity of the drug in the blood was measured by near-infrared (NIR) fluorescence quantification using a real-time optical imaging system equipped with a 660 nm excitation filter and a 710 nm emission filter. A calibration curve was constructed to analyze the concentration of the drug from the detected fluorescence intensity. The calibration curve was constructed by taking blood from an untreated tumor animal model and adjusting the concentration of the drug in the blood to 10^−8-10^−4.

caspase-3 [9] = molecular target: caspase-3 (Homo sapiens, UniProt P42574)
Experimental: Finally, the mixture solution was analyzed by RP-HPLC (Agilent 1200 series, Agilent Technology, USA) equipped with a UV detector.

[10] = self-assembled nanoparticle, physiological saline
Experimental: Morphology was observed by transmission electron microscopy (Talos F200X, FEI Company, USA). All the samples were treated with a 1% uranyl acetate solution to obtain negatively stained microscopic images.

[11] = Toxicity in vivo in tumor animal model (C3H); set-up: species or system mouse; number of neutrophils: unit not given here; settings: for change in number of total white blood cells (WBCs): 0.5 mg/kg (CDM based on MMAE concentration); for change in body weight: 50, 200, 500 μg/kg (CDM based on MMAE concentration); for survival rate: CDM 0.25 mg/kg based on MMAE, Ce6 1 mg/kg group
Experimental: The body weight change of the tumor animal model was measured every day after treatment with the drug. […] All the blood samples were stored at 4° C. and analyzed within a day in SCL (Seoul Clinical Laboratories, Korea).
First, a tumor animal model was prepared by transplanting SCC7 tumor cells into a C3H mouse. Details are described above in Materials and methods.
6 groups were prepared as follows by injecting drugs into the tail vein of the tumor animal model. […] The total treatment period was 14 days.

[12] = self-assembled nanoparticle, DPBS 0.1 mg/mL
Experimental: Molecular structure was investigated with ChemBioDraw Ultra 12.0 (Cambridge Soft Corporation), PyMOL 1.7.0.1 (DeLano Scientific) or Discovery Studio 4.0. […] Hydrodynamic size and distribution were measured by dynamic light scattering (SZ-100, Horiba, Ltd., Japan) using a 532 nm DPSS laser.

[13] = Solubility in water, PBS and physiological saline; type: physicochemical; settings: for solubility in water: dissolved in water alone
[14] = pyrene method
Description: Next, emission spectra were obtained at 372 nm and 383 nm using a spectrophotometer (F-7000, Hitachi High-Technologies Corporation, Japan) with an excitation wavelength of 340 nm. […] Fluorescence images were obtained at excitation (660 nm) and emission (710 nm) wavelengths.

SCC7 tumor [15] = test system: SCC7 tumor
Experimental: In order to conduct an in-vivo animal experiment, 5-week-oil BALB/c nude mouse mice were used as an allograft tumor animal model (BALB/c). The tumor animal model (BALB/c) was prepared by preparing a cell suspension containing 1×10^6 SCC7 cells and 80 μL of a medium and injecting it into the thighbone at the flank of the BALB/c nude mouse where the effect of respiratory movement is little. Then, the mice were bred for about 8 days until the tumor grew to a size of about 80 mm^3.
The tumor animal model prepared by administering various drugs as described in 9) was subjected to photodynamic therapy and the expression level of caspase-3 in vivo was monitored. For this, NIR fluorescence images were obtained using a probe which is activated by specifically reacting with caspase-3 (Cas3p; Cy5-GDEVD-BHQ3).
After 3 hours, Cas3p was injected and its biodistribution was measured using an excitation filter (640 nm) and an emission filter (710 nm).
First, in order to clarify the stimulation-specific therapeutic effect for a tumor animal model, the same tumor tissue was transplanted into different parts (left and right sides) of the same animal model and the two tumor tissues were compared.
A tumor animal model (Balb/c nu/nu) was prepared as described above in Materials and methods 9).

SCC7 tumor [16] = test: Antitumor effect in tumor animal model (C3H); settings: for tumor growth with laser: drug + 671 nm laser 25 mW/cm^2, Ce6 1 mg/kg, CDM 0.25 mg/kg based on MMAE; for damage to other organs (biopsy) / tumor cell killing in H&E biopsy: drug + laser
Experimental: For evaluation of therapeutic effect in vivo, tumor volume was measured for a tumor animal model for 14 days. When the tumor tissue grew to a size of about 80 mm^3, the tumor animal model was evaluated by dividing into 6 groups as follows.
Then, the tumor size was measured every other day.
For histological analysis, tumor tissues and organ tissues were taken from the in-vivo animal model after conducting antitumor growth analysis. The extracted tissues were washed with PBS and fixed with a 4% paraformaldehyde solution. Then, the tissues were stained with H&E (hematoxylin and eosin) and the stained tissues were embedded in paraffin and placed on glass slides after cutting into 4 μm thick slices. After removing paraffin, the tissues were stained with H&E and observed under an optical microscope (BX 51; Olympus, USA). […] The tissues were cut into 10 μm thick slices, freeze-dried and then observed under a confocal laser scanning microscope.
A He—Ne laser (671 nm) was used and the laser was irradiated at 25 mW/cm^2 three times for 10 minutes after the injection of the drug (n=6).

[17] = physiological saline

Chain of caspase-3 (Homo sapiens, UniProt P42574) (P42574 29-175 limits assumed, species assumed): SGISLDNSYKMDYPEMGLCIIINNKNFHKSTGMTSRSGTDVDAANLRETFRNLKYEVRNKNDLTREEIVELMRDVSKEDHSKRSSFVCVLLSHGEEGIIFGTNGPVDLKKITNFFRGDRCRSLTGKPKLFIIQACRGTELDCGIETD
Chain of caspase-3 (Homo sapiens, UniProt P42574) (P42574 176-277 limits assumed, species assumed): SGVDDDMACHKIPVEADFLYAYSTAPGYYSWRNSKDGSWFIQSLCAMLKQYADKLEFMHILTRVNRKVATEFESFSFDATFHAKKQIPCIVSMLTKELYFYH

C=Cc1c(C)c2cc3nc(c(CC(=O)O)c4nc(cc5[nH]c(cc1[nH]2)c(C)c5CC)C(C)=C4C(=O)O)C(CCC(=O)NCCCC[C@H](NC(C)=O)C(=O)NCC(=O)N[C@@H](CC(=O)O)C(=O)N[C@@H](CCC(=O)O)C(=O)N[C@H](C(=O)N[C@@H](CC(=O)O)C(=O)Nc1ccc(COC(=O)N(C)[C@H](C(=O)N[C@H](C(=O)N(C)C([C@@H](C)CC)[C@@H](CC(=O)N2CCC[C@H]2[C@H](OC)[C@@H](C)C(=O)N[C@H](C)[C@@H](O)c2ccccc2)OC)C(C)C)C(C)C)cc1)C(C)C)C3C (stereo partly shown) [CDM, Ce6-(Ac)KGDEVD-PABC-MMAE] (Ac-K(X1)GDEVD[PABC][NMeV]V[ξDil][Dolaproine]-X2)
cell viability (SCC7 cells [1]; 500 nM, light irradiated from outside (laser (+))): 12.8±9.2%
cytotoxic effect compared to when the drugs are used alone (SCC7 cells [1]; after external stimulation (light irradiation or caspase-3)): ≥ 2 time
cells killed after laser irradiation of a marked area (SCC7 cells [2]): nearby cells were also killed effectively
intracellular caspase-3 level (western blot) (caspase-3 [3]): increased the intracellular concentration of caspase-3
fluorescence intensity in organs and tumor 24 hours after injection (SCC7 tumor [4]; liver, lung, spleen, kidney, heart and tumor tissues): high
fluorescence intensity in the tumor tissue relative to Ce6-injected model (SCC7 tumor [4]; mouse, in vivo): 12.8-4.2
time of highest fluorescence intensity in the tumor (SCC7 tumor [4]; tail vein injection): 6 to 12 h
apoptosis induction on light irradiation (SCC7 cells [5]): can induce apoptosis even with a small quantity of light
tumor cell growth (cell viability, CCK) (SCC7 cells [6]; 10 nM in combination with caspase-3): 50.1%
effect on tumor cells at 10 nM without caspase-3 (SCC7 cells [6]): little effect
cell survival rate (SCC7 cells [6]; 50 nM in the presence of caspase-3): 42.5%
cell survival rate (SCC7 cells [6]; 200 nM in the presence of caspase-3): 32.5%
cell survival rate (SCC7 cells [6]; 600 nM in the presence of caspase-3): 25.5%
time to accumulation in the cells in an enough amount (SCC7 cells [7]): ≤ 3 h
blood level at first [8]: higher than that of Ce6
time to effective activation by caspase-3 (caspase-3 [9]; 10 μM CDM, 500 ng/mL caspase-3, 37° C.): ≤ 2 h
activation by caspase-3 in presence of caspase-3 inhibitor (Z-DEVD-FMK) (caspase-3 [9]; incubation for 2 hours): not completely activated
average diameter (TEM images) [10]: about 52.6±20.0 nm
change in number of total white blood cells (WBCs) [11]: no change
number of neutrophils ([11]; 0.5 mg/kg based on MMAE concentration): 1.6±1.0000
change in body weight [11]: 4.8±0.2%
survival rate [11]: 100%
average diameter (hydrodynamic, DLS) [12]: 90.8±18.9 nm
solubility ([13]; water, PBS and physiological saline): dissolves well in all of water, PBS and physiological saline
critical micelle concentration (CMC) [14]: about 1.382 μM
growth of left-side vs right-side (laser) tumor (SCC7 tumor [15]; 0.5 mg/kg, 15 days): distinct difference in the growth of the left-side and right-side tumors
caspase-3 probe (Cy5-GDEVD-BHQ3) fluorescence in tumors (SCC7 tumor [15]; CDM i.v., laser on right-side tumor only): observed only in the right-side tumor
tumor size with time, no laser (SCC7 tumor [16]; CDM group, laser not irradiated): no change in tumor size
tumor weight decrease compared to the CDM group and the laser group (SCC7 tumor [16]; CDM+laser group): 99.6%
tumor growth with laser (SCC7 tumor [16]): no tumor growth
damage to other organs (biopsy) (SCC7 tumor [16]): no damage to other organs
tumor cell killing in H&E biopsy (SCC7 tumor [16]): killed extensively
average diameter (SEM) [17]: 50-200 nm

CC[C@H](C)[C@@H]([C@@H](CC(=O)N1CCC[C@H]1[C@H](OC)[C@@H](C)C(=O)N[C@H](C)[C@@H](O)c1ccccc1)OC)N(C)C(=O)[C@@H](NC(=O)[C@@H](NC)C(C)C)C(C)C [MMAE, monomethyl auristatin E] (H-[NMeV]V[Dil][Dolaproine]-X2)
cell viability (SCC7 cells [1]; treated with MMAE only): 25.8±10.1%
increase in plasma ALT ([11]; 0.5 mg/kg): 1.5 times
increase in plasma AST ([11]; 0.5 mg/kg): 2.7 times
neutrophils, times less as compared to the saline group ([11]; 0.5 mg/kg): 4.9 times
percentage of the neutrophils to the total white blood cells ([11]; 0.5 mg/kg): 2.5±1.4%
change in number of total white blood cells (WBCs) [11]: 35.7±13.8%
change in body weight [11]: 31.6±2.2%
day on which all were killed ([11]; MMAE 0.25 mg/kg): 4 days
day on which group began to die ([11]; MMAE 0.25 mg/kg): 3 days
size of lymphocytes (lymphoid tissue; white pulp) in spleen ([11]; MMAE group): significantly decreased
spleen weight decrease ([11]; MMAE group): 75±11.8%
body weight decrease ([11]; MMAE group, 0.25 mg/kg): 31.9±1.6%
solubility in water [13]: water insolubility
outcome of group during the antitumor experiment (SCC7 tumor [16]; MMAE 0.25 mg/kg only): died during the experiment because of too strong toxicity

Chlorin e6 [Ce6, reference compound]
cells killed after laser irradiation of a marked area (SCC7 cells [2]): only the cells treated with a laser were killed
fluorescence in the tumor tissue (SCC7 tumor [4]; tail vein injection): hardly detected
effect on tumor cells at 10 nM without caspase-3 (SCC7 cells [6]): no effect
survival rate [11]: 100%
solubility in water [13]: water insolubility
tumor growth with laser (SCC7 tumor [16]): tumor growth-inhibiting effect
damage to other organs (biopsy) (SCC7 tumor [16]): no damage to other organs
tumor cell killing in H&E biopsy (SCC7 tumor [16]): very insignificant
